Reference: patent US10287267B2, “Isoquinolin-3-yl carboxamides and preparation and use thereof” (Samumed, LLC, priority 2016, dated 2019)
Blank lines part the entries; values can stand above or below the compound they belong to.

What was measured:
[1] = molecular target: recombinant DYRK1A kinase (Homo sapiens (Human), UniProt Q13627); assay: DYRK1A kinase assay (Ser/Thr 18 peptide Z-lyte FRET); assay type: biochemical; conditions: 30 μM ATP, 1 h room temperature;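 further: Read-out is the coumarin to fluorescein emission ratio, referenced to unphosphorylated (0%) and phosphorylated (100%) Ser/Thr 18 peptide controls, values from dose-response curves by non-linear regression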
[2] = molecular target: recombinant GSK3β kinase (Homo sapiens (Human), UniProt P49841); assay: GSK3β kinase assay (Ser/Thr 09 peptide Z-lyte FRET); assay type: biochemical; conditions: 46 μM ATP, 1 h room temperature;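 further: kinase activity read as coumarin to fluorescein emission ratio, 11-point threefold dilutions from 10 µM to 0.0003 µM in duplicate, unphosphorylated and phosphorylated peptide as 0% and 100% controls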
recombinant GSK3β kinase, sequence (P49841 whole entry): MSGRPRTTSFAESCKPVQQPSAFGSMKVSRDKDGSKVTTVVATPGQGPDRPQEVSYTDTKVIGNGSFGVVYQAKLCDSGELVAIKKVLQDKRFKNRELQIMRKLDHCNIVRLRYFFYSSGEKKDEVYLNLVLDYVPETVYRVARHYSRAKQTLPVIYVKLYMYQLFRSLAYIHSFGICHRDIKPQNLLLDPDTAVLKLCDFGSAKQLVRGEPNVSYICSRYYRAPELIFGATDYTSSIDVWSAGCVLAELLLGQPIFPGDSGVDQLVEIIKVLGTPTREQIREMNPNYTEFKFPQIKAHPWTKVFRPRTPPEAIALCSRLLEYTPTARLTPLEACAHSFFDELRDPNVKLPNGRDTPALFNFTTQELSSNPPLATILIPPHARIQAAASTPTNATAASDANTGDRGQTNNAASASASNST

[3] = test system: Wnt pathway (Sp5-Luc reporter, TCF/LEF binding sites) in SW480 colon carcinoma cells; assay: Screening assay for Wnt activity: Sp5-Luc reporter gene assay; assay type: cell-based, human; conditions: Homo sapiens; for EC50: Sp5-Luc reporter, SW480 cells, 36 to 48 hours;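 on all read-outs here: firefly luciferase luminescence read in stably transduced SW480 cells carrying the Sp5 promoter reporter with eight TCF/LEF sites, compounds given in 0.1% DMSO final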
Description: The screening assay for Wnt activity is described as follows.
Following incubation, 15 μl of BriteLite Plus luminescence reagent (Perkin Elmer) was added to each well of the 384-well assay plates. The plates were placed on an orbital shaker for 2 min and then luminescence was quantified using the Envision (Perkin Elmer) plate reader.

[4] = test system: Tau phosphorylation at Ser396 (pSer396); assay: Tau phosphorylation assay (pSer396 ELISA / western blot) in SH-SY5Y cells; assay type: cell-based, human; conditions: Homo sapiens; SH-SY5Y cells, overnight (16-18 h) exposure; read-out: pSer396 Tau EC50;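 further: EC50 for reduction of Tau pSer396 in lysed cells, measured by colorimetric ELISA or chemiluminescent western blot, both using the same pSer396 antibody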
[5] = test system: IL-6; assay: IL-6 inhibition in LPS-stimulated human peripheral blood mononuclear cells (HTRF); assay type: cell-based; conditions: Homo sapiens, PBMC; for EC50: Table 9, huPBMCs, LPS 50 ng/mL, 22 hours, dose-response starting from 10 μM; for inhibition at 10 µM: read-out: percent value in parentheses beside EC50 >10 μM;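 on all read-outs here: IL-6 detected by HTRF with an XL665- and Cryptate-labelled anti-IL-6 antibody pair, samples run in duplicate, EC50 obtained from a four-parameter Levenberg-Marquardt curve fit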
Description: After 22 hour incubation, a mixture of anti-IL6 XL665 and anti-IL-6 Cryptate diluted in reconstitution buffer (Catalog #62IL6PEC, Cisbio Inc., Bedford, Mass.) was added to each well. […] All samples were processed in duplicate. […] EC50 was determined using software generated by Dotmatics Limited (Windhill Bishops Stortford Herts, UK) using the Levenberg-Marquardt 4 parameter fitting procedure with finite different gradients.

[6] = test system: α-smooth muscle actin (αSMA) positive LL29 cells; assay: Inhibition of fibrotic process: αSMA in TGF-β1 treated primary human fibroblasts from IPF patients; assay type: cell-based; conditions: Homo sapiens, Fibroblast; for EC50: 96 h, Table 8, LL29 fibroblasts from IPF patients, TGF-β1 20 ng/mL, 4 days, dose-response 10 μM to 0.94 nM; for inhibition at 10 µM: read-out: percent value in parentheses beside EC50 >10 μM;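 on all read-outs here: controls were TGF-β1 stimulated wells with DMSO vehicle (positive) and cells given DMSO alone (negative), cultured in F12 medium with 1% fetal bovine serum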
[7] = test system: SW480 colon carcinoma cells; assay: Cell viability assay (CellTiter-Glo); assay type: cell-based, human; conditions: Homo sapiens; for EC50: 96 h, SW480 cells, CellTiter-Glo, four days incubation; for inhibition at 10 µM: SW480, read-out: percent inhibition at 10 μM

SMILES: CC(C)CN1CCC(C(=O)Nc2cc3cc(-c4cncn4C)ccc3cn2)CC1 [Compound 554, 1-Isobutyl-N-(6-(1-methyl-1H-imidazol-5-yl)isoquinolin-3-yl)piperidine-4-carboxamide]
EC50 [1]: 1.4 nM
EC50 [2]: 38 nM
EC50 [3]: 272 nM
EC50 [4]: 95 nM
EC50 [5]: 439 nM
EC50 [6]: 190 nM
EC50 [7]: 366 nM

SMILES: Cn1cncc1-c1ccc2cnc(NC(=O)C3CCN(S(C)(=O)=O)CC3)cc2c1 [Compound 561, N-(6-(1-Methyl-1H-imidazol-5-yl)isoquinolin-3-yl)-1-(methylsulfonyl) piperidine-4-carboxamide]
EC50 [1]: 1.5 nM
EC50 [2]: 12 nM
EC50 [3]: 1460 nM
EC50 [4]: 395 nM
EC50 [5]: 634 nM
EC50 [6]: 600 nM
EC50 [7]: 924 nM

SMILES: CC(C(=O)Nc1cc2cc(-c3cncn3C)ccc2cn1)N1CCCC1 (centres unmarked) [Compound 579, N-(6-(1-Methyl-1H-imidazol-5-yl)isoquinolin-3-yl)-2-(pyrrolidin-1-yl) propanamide]
EC50 [1]: 25 nM
EC50 [2]: 48 nM
EC50 [3]: 899 nM
EC50 [4]: 62 nM
EC50 [5]: 1020 nM
EC50 [6]: 167 nM
EC50 [7]: 954 nM

SMILES: CC(C)CN1CCC(C(=O)Nc2cc3cc(-c4cn[nH]c4)ccc3cn2)CC1 [Compound 643, N-(6-(1H-Pyrazol-4-yl)isoquinolin-3-yl)-1-isobutylpiperidine-4-carboxamide]
EC50 [1]: 1.8 nM
EC50 [2]: 49 nM
EC50 [3]: 129 nM
EC50 [4]: 49 nM
EC50 [5]: 129 nM
EC50 [6]: 138 nM
EC50 [7]: 115 nM

SMILES: O=C(Nc1cc2cc(-c3cncs3)ccc2cn1)C1CC(F)(F)C1 [Compound 699, 3,3-Difluoro-N-(6-(thiazol-5-yl)isoquinolin-3-yl)cyclobutane-1-carboxamide]
EC50 [1]: 2.1 nM
EC50 [2]: 24 nM
EC50 [3]: 541 nM
EC50 [4]: 423 nM
EC50 [5]: 410 nM
EC50 [6]: 234 nM
EC50 [7]: 834 nM

SMILES: CN1CC2(CC(C(=O)Nc3cc4cc(-c5cncs5)ccc4cn3)C2)C1 [Compound 700, 2-Methyl-N-(6-(thiazol-5-yl)isoquinolin-3-yl)-2-azaspiro[3.3]heptane-6-carboxamide]
EC50 [1]: 2.2 nM
EC50 [2]: 49 nM
EC50 [3]: 771 nM
EC50 [4]: 513 nM
EC50 [5]: 380 nM
EC50 [6]: 275 nM
EC50 [7]: 623 nM

EC50 [1]: 8.2 nM
EC50 [2]: 1830 nM
EC50 [3]: > 10000 nM
EC50 [4]: 10000 nM
EC50 [5]: > 10000 nM
EC50 [7]: > 10000 nM
SMILES: O=C(Nc1cc2cc(-c3cncs3)ccc2cn1)C1(F)CCCCC1 [Compound 704, 1-Fluoro-N-(6-(thiazol-5-yl)isoquinolin-3-yl)cyclohexane-1-carboxamide]
inhibition at 10 µM ([3]; SW480, read-out: percent inhibition at 10 μM): 10.2%
inhibition at 10 µM [5]: 4.8%
EC50 [6]: 4380 nM
inhibition at 10 µM [7]: 18.1%

SMILES: CN(C)[C@H]1CC[C@H](C(=O)Nc2cc3cc(-c4cncs4)ccc3cn2)CC1 [Compound 707, trans-4-(Dimethylamino)-N-(6-(thiazol-5-yl)isoquinolin-3-yl)cyclohexane-1-carboxamide]
EC50 [1]: 0.9 nM
EC50 [2]: 46 nM
EC50 [3]: 472 nM
EC50 [4]: 449 nM
EC50 [5]: 446 nM
EC50 [6]: 4240 nM
EC50 [7]: 947 nM

SMILES: O=C(Nc1cc2cc(-c3cncs3)ccc2cn1)[C@H]1CC[C@H](CN2CC(F)C2)CC1 [Compound 711, trans-4-((3-Fluoroazetidin-1-yl)methyl)-N-(6-(thiazol-5-yl)isoquinolin-3-yl)cyclohexane-1-carboxamide]
EC50 [1]: 1 nM
EC50 [2]: 67 nM
EC50 [3]: 703 nM
EC50 [4]: 443 nM
EC50 [5]: 1080 nM
EC50 [6]: 540 nM
EC50 [7]: 706 nM

SMILES: O=C(Nc1cc2cc(-c3cncs3)ccc2cn1)C1CNC1 [Compound 713, N-(6-(Thiazol-5-yl)isoquinolin-3-yl)azetidine-3-carboxamide]
EC50 [1]: 3.1 nM
EC50 [2]: 98 nM
EC50 [3]: 9250 nM
EC50 [4]: 5000 nM
EC50 [5]: 3630 nM
EC50 [6]: > 10000 nM
inhibition at 10 µM [6]: 37.6%
EC50 [7]: 6980 nM

SMILES: CN1CCC(C(=O)Nc2cc3cc(-c4cncs4)ccc3cn2)CC1 [Compound 718, 1-Methyl-N-(6-(thiazol-5-yl)isoquinolin-3-yl)piperidine-4-carboxamide]
EC50 [1]: 1.3 nM
EC50 [2]: 79 nM
EC50 [3]: 589 nM
EC50 [4]: 294 nM
EC50 [5]: 406 nM
EC50 [6]: 168 nM
EC50 [7]: 483 nM

SMILES: O=C(Nc1cc2cc(-c3cncs3)ccc2cn1)C1CCN(C2COC2)CC1 [Compound 737, 1-(Oxetan-3-yl)-N-(6-(thiazol-5-yl)isoquinolin-3-yl)piperidine-4-carboxamide]
EC50 [1]: 1 nM
EC50 [2]: 62 nM
EC50 [3]: 1290 nM
EC50 [4]: 865 nM
EC50 [5]: 1180 nM
EC50 [6]: 80 nM
EC50 [7]: 4340 nM

SMILES: O=C(Nc1cc2cc(-c3cncs3)ccc2cn1)C1CCN(C(=O)CN2CCCC2)CC1 [Compound 741, 1-(2-(Pyrrolidin-1-yl)acetyl)-N-(6-(thiazol-5-yl)isoquinolin-3-yl)piperidine-4-carboxamide]
EC50 [1]: 0.9 nM
EC50 [2]: 107 nM
EC50 [3]: 444 nM
EC50 [4]: 528 nM
EC50 [5]: 380 nM
EC50 [6]: 175 nM
EC50 [7]: 462 nM

SMILES: CN1CCC(N2CCC(C(=O)Nc3cc4cc(-c5cncs5)ccc4cn3)CC2)CC1 [Compound 743, 1′-Methyl-N-(6-(thiazol-5-yl)isoquinolin-3-yl)-[1,4′-bipiperidine]-4-carboxamide]
EC50 [1]: 1.3 nM
EC50 [2]: 63 nM
EC50 [3]: 9490 nM
EC50 [4]: 432 nM
EC50 [5]: 1130 nM
EC50 [6]: 447 nM
EC50 [7]: 1540 nM

SMILES: CC(C(=O)Nc1cc2cc(-c3cncs3)ccc2cn1)N1CCCC1 (centres unmarked) [Compound 758, 2-(Pyrrolidin-1-yl)-N-(6-(thiazol-5-yl)isoquinolin-3-yl)propanamide]
EC50 [1]: 24.3 nM
EC50 [2]: 50 nM
EC50 [3]: 1250 nM
EC50 [4]: 384 nM
EC50 [5]: 2870 nM
EC50 [6]: 265 nM
EC50 [7]: 1340 nM

SMILES: O=C(CN1CCCCC1)Nc1cc2cc(-c3cncs3)ccc2cn1 [Compound 760, 2-(Piperidin-1-yl)-N-(6-(thiazol-5-yl)isoquinolin-3-yl)acetamide]
EC50 [1]: 3.8 nM
EC50 [2]: 133 nM
EC50 [3]: 3970 nM
EC50 [4]: 1200 nM
EC50 [5]: 1240 nM
EC50 [6]: 765 nM
EC50 [7]: 3280 nM

SMILES: CN1CCN(CC(=O)Nc2cc3cc(-c4cncs4)ccc3cn2)CC1 [Compound 767, 2-(4-Methylpiperazin-1-yl)-N-(6-(thiazol-5-yl)isoquinolin-3-yl)acetamide]
EC50 [1]: 4.3 nM
EC50 [2]: 157 nM
EC50 [3]: 3220 nM
EC50 [4]: 1000 nM
EC50 [5]: 3820 nM
EC50 [6]: > 10000 nM
inhibition at 10 µM [6]: 33.2%
EC50 [7]: 9050 nM

SMILES: O=C(CN1CCOCC1)Nc1cc2cc(-c3cncs3)ccc2cn1 [Compound 773, 2-Morpholino-N-(6-(thiazol-5-yl)isoquinolin-3-yl)acetamide]
EC50 [1]: 3.8 nM
EC50 [2]: 219 nM
EC50 [3]: 6550 nM
EC50 [4]: 2200 nM
EC50 [5]: 3480 nM
EC50 [6]: > 10000 nM
inhibition at 10 µM [6]: 30.3%
EC50 [7]: > 10000 nM
inhibition at 10 µM [7]: 48.4%

SMILES: Cn1ncc(-c2ccc3cnc(NC(=O)C(C)(C)F)cc3c2)c1CN1CCCCC1 [Compound 784, 2-Fluoro-2-methyl-N-(6-(1-methyl-5-(piperidin-1-ylmethyl)-1H-pyrazol-4-yl)isoquinolin-3-yl)propanamide]
EC50 [1]: 10.8 nM
EC50 [2]: 133 nM
EC50 [3]: 5880 nM
EC50 [4]: 2200 nM
inhibition at 10 µM [5]: 3.7%
EC50 [5]: > 10000 nM
EC50 [6]: > 10000 nM
inhibition at 10 µM [6]: 37.4%
EC50 [7]: > 10000 nM
inhibition at 10 µM [7]: 39.7%

SMILES: CCN(CC)CC(=O)Nc1cc2cc(-c3cnn(C)c3CN3CCCCC3)ccc2cn1 [Compound 785, 2-(Diethylamino)-N-(6-(1-methyl-5-(piperidin-1-ylmethyl)-1H-pyrazol-4-yl)isoquinolin-3-yl)acetamide]
EC50 [1]: 10.1 nM
EC50 [2]: 44 nM
EC50 [3]: 2840 nM
EC50 [4]: 485 nM
EC50 [5]: 9150 nM
EC50 [6]: 1170 nM
EC50 [7]: 2860 nM

SMILES: Cn1ncc(-c2ccc3cnc(NC(=O)C4CC5(C4)CN(CCF)C5)cc3c2)c1CN1CCCCC1 [Compound 791, 2-(2-Fluoroethyl)-N-(6-(1-methyl-5-(piperidin-1-ylmethyl)-1H-pyrazol-4-yl)isoquinolin-3-yl)-2-azaspiro[3.3]heptane-6-carboxamide]
EC50 [1]: 2.2 nM
EC50 [2]: 5 nM
EC50 [3]: 212 nM
EC50 [4]: 55 nM
EC50 [5]: 350 nM
EC50 [6]: 67 nM
EC50 [7]: 137 nM

SMILES: CO[C@H]1CC[C@H](C(=O)Nc2cc3cc(-c4cnn(C)c4CN4CCCCC4)ccc3cn2)CC1 [Compound 795, trans-4-Methoxy-N-(6-(1-methyl-5-(piperidin-1-ylmethyl)-1H-pyrazol-4-yl)isoquinolin-3-yl)cyclohexane-1-carboxamide]
EC50 [1]: 2.4 nM
EC50 [2]: 33 nM
EC50 [3]: 471 nM
EC50 [4]: 401 nM
EC50 [5]: 1220 nM
EC50 [6]: 227 nM
EC50 [7]: 806 nM
